Reference: US12065434B2, “Metabolites of GLP1R agonists” (Pfizer Inc., priority 2020, dated 2024)

What was measured:
[1] = test system: human hepatocytes; experiment: In vitro metabolism of Compound 2 in human cryopreserved hepatocytes; assay type: in vitro ADME; design: key to Relative abundance of metabolite of Compound 2, Human: ND Not detected.; trace: Trace: observed by HPLC/MS measurements only.; + Minor as assessed by HPLC/UV measurements; ++ moderate as assessed by HPLC/UV measurements; +++ major as assessed by HPLC/UV measurements.; * m/z 593 and m/z 505 co-eluted in rabbit hepatocytes.; ** m/z 591 c and m/z 593 were merged in human hepatocytes and Hepatopack.; *** m/z 607 and m/z 751 b were merged in rabbit hepatocytes; conditions: for metabolite of Compound 2 observed in human hepatocyte incubations: 10 μM Compound 2, 7.5×10^5 cells/mL, 1 and 4 hrs composite
Description: Male CD-1 mouse hepatocytes (lot YHL), male Wistar-Han rat hepatocytes (Celsius; product number: M000065; lot: SLA), female New Zealand rabbit hepatocytes (lot 1510147), male cryopreserved cynomolgus monkey hepatocytes (Celsius; product number: M00305; lot: DNB) and mixed-gender cryopreserved human hepatocytes (Bioreclamation; product number: S01988; lot: DCM) were obtained for the hepatocyte in-vitro assessments.
At time 0 hrs 550 μL aliquots were removed from incubations and quenched with 5 volumes of ACN containing 0.1% formic acid. At 1 and 4 hrs, 275 μL aliquots were removed and quenched as above; these were combined in the same tube to prepare a composite sample. For all hepatocyte experiments, samples were processed by centrifugation at 1900×g for 5 minutes, and then the supernatant was transferred to clean glass tubes and evaporated to dryness under a stream of N2 using a Turbovap at 37° C. Sample residues were reconstituted in mobile phase prior to analysis by HPLC/UV/MS^n.
(§1) Samples were analyzed by HPLC/UV/MS^n using a Thermo Orbitrap Elite mass spectrometer in conjunction with a Thermo Open Accela UHPLC system. A 3.0×150 mm, 2.5 μm Acquity CSH C18 HPLC column (Waters) was heated to 45° C. for separation of analytes. The mobile phase was a gradient of A): water containing 0.1% formic acid, and B): acetonitrile. The flow rate was 450 μL/min, and the following gradient program was utilized: […]
(§2) UV absorbance was monitored with a photo-diode array detector from 220-450 nm. The mass spectrometer was operated in positive-ion mode with a HESI ion source at a potential of 3.0 kV, and capillary and source heater temperatures of 380 and 300° C., respectively. Sheath, auxiliary, and sweep gas flows were set to 45, 10, and 2 units, respectively. Full scan mass spectra were acquired over the range 120-1200 m/z at a resolving power of 30,000 (specified at m/z 400). Data-dependent MS^n spectra were acquired in an automated fashion at 15,000 resolving power using CID and HCD fragmentation with normalized collision energy settings of 28 and 65 V, respectively.
(§3) Metabolites were characterized by comparisons of mass spectral fragmentation patterns with that of a Compound 2 standard. All HPLC/UV/MS^n data were processed using Xcalibur v. 2.2, and integrated UV peak areas were subjected to weighted UV binning procedures utilizing an Excel template.

[2] = test system: human co-cultured hepatocytes (Hepatopack); experiment: In vitro metabolism of Compound 2 in human micropatterned co-cultured hepatocytes (Hepatopack); assay type: in vitro ADME; design: key to Relative abundance of metabolite of Compound 2, Hepatopack: ND Not detected.; trace: Trace: observed by HPLC/MS measurements only.; + Minor as assessed by HPLC/UV measurements; ++ moderate as assessed by HPLC/UV measurements; +++ major as assessed by HPLC/UV measurements.; * m/z 593 and m/z 505 co-eluted in rabbit hepatocytes.; ** m/z 591 c and m/z 593 were merged in human hepatocytes and Hepatopack.; *** m/z 607 and m/z 751 b were merged in rabbit hepatocytes
Text: Micro-patterned co-cultured (MPCC) hepatocyte 24-well plates containing human donors (16 wells each) were provided by Ascendance Biotechnology (formerly Hepregen Corp. (Medford, MA). [see Wang W W W, Khetani S R, Krzyzewski S, et al. Assessment of a Micropatterned Hepatocyte Coculture System to Generate Major Human Excretory and Circulating Drug Metabolites. Drug Metab Dispos 2010; 38(10):1900-5.] The MPCCs were created at Ascendance Biotechnology and maintained in serum containing medium for 5-6 days to allow for stabilization of the co-cultures prior to shipment. A mixed-gender cryopreserved pool of 10 human donors (X008001-P; lot YFA) was used to seed the plates and was purchased from BioreclamationIVT (Westbury, NY). MPCC hepatocytes are plated with fibroblasts in a 1:3 ratio with ˜25,000 hepatocytes/well in a 24-well plate. 24-Well MPCC plates were shipped to Pfizer, fresh medium (400 μL/well) was applied and cultures were kept at 37° C. with […] and 95% relative humidity for two days. Micropatterned co-cultures containing pooled hepatocytes were allowed 7 days to fully stabilize with respect to liver-specific functions. […] At respective time points (0, 2, and 7 days), the culture medium was removed and mixed with 4 volumes of ACN, then stored frozen at −40° C. until samples could be analyzed. Samples were subsequently processed by the addition of 2.5 mL of 1:1 ACN:MeOH containing 0.1% formic acid. After vortexing, the samples were centrifuged at 1900×g for 5 min, then the supernatant was transferred to 15 mL conical tubes and evaporated under N2 using a Turbovap set at 37° C. The residues were reconstituted in mobile phase (5:95 v:v ACN:0.1% aqueous formic acid) prior to analysis by HPLC/UV/MS^n.
as §1
as §2, with “Data-dependent MS^n spectra were acquired in an automated fashion at 15,000 resolving power using CID and HCD fragmentation with normalized collision energy settings of 28 and 65 V, respectively.” left out

[3] = Circulating metabolites of Compound 2 in rat plasma following a 1.0 mg/kg IV bolus dose; assay type: in vivo; conditions: 1.0 mg/kg IV bolus dose of Compound 2, pooled 0.033-24 hrs
Description: Plasma and bile samples were obtained from a bile duct cannulated rat experiment (Study PK-0111) in which a 1.0 mg/kg IV bolus dose was administered to fed male rats (N=3). No control plasma was available from this experiment.
Clin Pharmacol Ther 1981; 29(3):408-13]. The entire volume of each replicate Hamilton pool was combined to create a single pooled sample (576 μL) for analysis.
Pooled plasma and bile samples were extracted with ACN containing 0.1% formic acid, and after centrifugation at 1900×g, the supernatant was transferred to clean tubes and evaporated under N2 in a Turbovap set at 37° C. Residues were reconstituted in mobile phase (5:95 v:v ACN:0.1% aqueous formic acid) prior to analysis by HPLC/UV/MS^n.
as §1, §2, §3

[4] = biological target: T1, human GLP-1R (Homo sapiens, UniProt P43220, L260F); experiment: CHO GLP-1R Clone C6 - Assay 2 (HTRF cAMP agonist assay, low receptor density); assay type: cell-based; conditions: CHO GLP-1R Clone C6 (low receptor density), arithmetic mean, relative to 1 μM GLP-1
T1 construct: expressed in transfected cells
T1 sequence (P43220 24-463 L260F): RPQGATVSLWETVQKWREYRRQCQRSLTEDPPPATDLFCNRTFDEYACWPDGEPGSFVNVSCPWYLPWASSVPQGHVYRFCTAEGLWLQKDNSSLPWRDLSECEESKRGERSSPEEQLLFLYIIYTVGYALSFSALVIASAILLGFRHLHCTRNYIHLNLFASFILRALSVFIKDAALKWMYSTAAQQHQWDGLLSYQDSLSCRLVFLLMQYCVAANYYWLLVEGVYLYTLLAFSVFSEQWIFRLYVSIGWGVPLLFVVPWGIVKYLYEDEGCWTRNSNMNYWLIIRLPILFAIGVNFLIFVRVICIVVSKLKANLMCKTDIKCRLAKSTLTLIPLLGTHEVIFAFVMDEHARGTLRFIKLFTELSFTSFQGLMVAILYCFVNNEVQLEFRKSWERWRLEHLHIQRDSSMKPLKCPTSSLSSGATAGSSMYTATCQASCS
Description: GLP-1R-mediated agonist activity was determined with a cell-based functional assay utilizing an HTRF (Homogeneous Time-Resolved Fluorescence) cAMP detection kit (cAMP HI Range Assay Kit; Cis Bio cat #62AM6PEJ) that measures cAMP levels in the cell. The method is a competitive immunoassay between native cAMP produced by the cells and exogenous cAMP labeled with the dye d2. The tracer binding is visualized by a mAb anti-cAMP labeled with Cryptate. The specific signal (i.e. energy transfer) is inversely proportional to the concentration of cAMP in either a standard or an experimental sample.
The human GLP-1R coding sequence (NCBI Reference Sequence NP_002053.3, including naturally-occurring variant Leu260Phe) was subcloned into pcDNA5-FRT-TO and a clonal CHO cell line stably expressing a low receptor density was isolated using the Flp-In™ T-Rex™ System, as described by the manufacturer (ThermoFisher).
Cells were removed from cryopreservation, re-suspended in 40 mL of Dulbecco's Phosphate Buffered Saline (DPBS—Lonza Cat #17-512Q) and centrifuged at 800×g for 5 minutes at 22° C. The DPBS was aspirated, and the cell pellet was re-suspended in 10 mL of complete growth medium (DMEM:F12 1:1 Mixture with HEPES, L-Gln, 500 mL (DMEM/F12 Lonza Cat #12-719F), 10% heat inactivated fetal bovine serum (Gibco Cat #16140-071), 5 mL of 100× Pen-Strep (Gibco Cat #15140-122), 5 mL of 100× L-Glutamine (Gibco Cat #25030-081), 700 μg/mL Hygromycin (Invitrogen Cat #10687010) and 15 μg/mL Blasticidin (Gibco Cat #R21001). A 1 mL sample of the cell suspension in growth media was counted on a Becton Dickinson ViCell to determine cell viability and cell count per mL. The remaining cell suspension was then adjusted with growth media to deliver 1600 viable cells per well using a Matrix Combi Multidrop reagent dispenser, and the cells were dispensed into a white 384 well tissue culture treated assay plate (Corning 3570). The assay plate was then incubated for 48 hours at 37° C. in a humidified environment (95% O2, 5% CO2)
Varying concentrations of each compound to be tested (in DMSO) were diluted in assay buffer [HBSS with Calcium/Magnesium (Lonza/BioWhittaker cat #10-527F)/0.1% BSA (Sigma Aldrich cat #A7409-1L)/20 mM HEPES (Lonza/BioWhittaker cat #17-737E)] containing 100 μM 3-isobutyl-1-methylxanthin (IBMX; Sigma cat #15879). The final DMSO concentration in the compound/assay buffer mixture is 1%.
After 48 hours, the growth media was removed from the assay plate wells, and the cells were treated with 20 μL of the serially diluted compound in assay buffer for 30 minutes at 37° C. in a humidified environment (95% O2, 5% CO2). Following the 30 minute incubation, 10 μL of labeled d2 cAMP and 10 μL of anti-cAMP antibody (both diluted 1:20 in cell lysis buffer; as described in the manufacturer's assay protocol) were added to each well of the assay plate. The plates were then incubated at room temperature and after 60 minutes, changes in the HTRF signal were read with an Envision 2104 multi-label plate reader using excitation of 330 nm and emissions of 615 and 665 nm. Raw data were converted to nM cAMP by interpolation from a cAMP standard curve (as described in the manufacturer's assay protocol) and the percent effect was determined relative to a saturating concentration of the full agonist GLP-1 (1 μM) included on each plate. EC50 determinations were made from agonist dose response curves analyzed with a curve fitting program using a 4-parameter logistic dose response equation.

Compound	metabolite of Compound 2 observed in human hepatocyte incubations [1]	Relative abundance of metabolite of Compound 2, Human ([1]; human cryopreserved hepatocytes, HPLC/UV/MS)	Relative abundance of metabolite of Compound 2, Hepatopack ([2]; human co-cultured hepatocytes (Hepatopack), HPLC/UV/MS)	detected in rat plasma [3]	detected in rat plasma ([3]; listed as m/z 331)	Emax [4]	metabolite of Compound 2 observed in human hepatocyte incubations ([1]; listed as m/z 751b)	abundance of metabolite of Compound 2 in human Hepatopack system ([2]; Compound 2 tris salt 20 μM, up to 7 days)	detected in rat plasma ([3]; listed as m/z 751b)
C[C@]1(c2ccc(Cl)cn2)Oc2cccc(C3CCNCC3)c2O1 [Metabolite 331]	observed in all hepatocyte incubations	+	trace	observed	detected				
C[C@]1(c2ccc(Cl)cn2)Oc2cccc(C3CCN(Cc4nc5ccc(C(=O)O[C@@H]6O[C@H](C(=O)O)[C@@H](O)[C@H](O)[C@H]6O)cc5n4C[C@@H]4CCO4)CC3)c2O1 [Metabolite 751b]	observed in all hepatocyte incubations			observed		68%	most abundant metabolites	most abundant metabolites	detected
